US20160022760A1, “METHODS OF TREATING CELIAC DISEASE WITH LARAZOTIDE” (priority 2014, published 2016)
Where no end group is shown, it is not given here.

Legend:
[1] = tested on: anti-tissue transglutaminase (anti-tTG IgA and IgG); settings: each treatment group, MITT
From the text: (§1) Blood was collected for determination of serum anti-tTG (IgA and IgG) and anti-DGP (IgA and IgG) at the timings specified in Table 2.
(§2) Anti-tTG (IgA and IgG) and anti-DGP (IgA and IgG), and change from baseline (Week 0) to Visit 4 (Week 4), End of Treatment Visit 6 (Week 12), and End of Study Visit 7 (Week 16) were summarized descriptively. Week 0 served as baseline.

[2] = tested on: anti-deamidated gliadin peptide (anti-DGP IgA and IgG); settings: MITT
From the text: as §1, §2

[3] = tested on: celiac disease; settings: cited from earlier work
[4] = Phase IIb study: vital signs, BMI and body weight; format: in vivo, human
Protocol: Body weight was measured and BMI was calculated based upon screening height and weight at the timings specified in Table 2.
The Investigator or designee obtained vital signs including temperature, blood pressure (sitting), and pulse at screening and all study visits.
For continuous variables, changes from baseline to each time point were summarized with the number of nonmissing values, mean, standard deviation, median, and minimum and maximum values. For categorical variables, subject counts and percentages were provided. Results of ECGs were classified as normal; abnormal, not clinically significant, and abnormal, clinically significant, as specified on the ECG page of the eCRF. Summaries were presented by treatment group.

For “GGVLVQPG (SEQ ID NO:1) [Larazotide acetate]”, the “Average anti-tTG antibody titers (IgA) over the study, in words” value [1] was “remained relatively unchanged”, the “Average anti-tTG antibody titers (IgA)” value ([1]; throughout the study) was less than 10 units and the “Anti-DGP (IgA and IgG) antibody titers versus placebo, in words” value ([2]; any Larazotide acetate group) was “no clinically meaningful post baseline differences”. The “Average anti-DGP antibody titers (IgA) over the study, in words” value ([2]; each treatment group) was “remained relatively unchanged”, the “Safety profile in previous clinical studies, in words” value ([3]; 0.25 mg to 8 mg TID and up to 36 mg in a single dose) was “acceptable safety profile” and the “Efficacy of lower doses in previous studies, in words” value ([3]; lower doses 0.25 mg and 1 mg versus 4 mg or 8 mg) was “more effective compared to placebo than higher doses of 4 mg or 8 mg”. For the same sequence, the “Mean change from baseline in BMI (range)” value ([4]; 0.5, 1 and 2 mg groups, Week 4, Week 8, end of treatment, end of follow-up, placebo −0.1 to −0.3) was 0 to 0.2 kg/m^2, the “Mean change from baseline in body weight (range)” value ([4]; 0.5, 1 and 2 mg groups, placebo −0.2 to −0.8) was -0.1 to 0.5 kg and the “Mean changes from baseline in vital sign variables versus placebo, in words” value ([4]; systolic and diastolic blood pressure, pulse rate, body temperature) was “No clinically meaningful differences”.
